US20260115122A1, “PERSONAL CARE COMPOSITIONS COMPRISING PANCRATIUM MARITIMUM” (GALDERMA HOLDING SA, priority 2022, published 2026)

Tested on: Normal Human Epidermal Melanocytes darkly-pigmented (NHEM-DP)
Assay: Melanin content (melanin reduction) assay
Assay type: cell-based
Conditions: 72 h treatment, test product 0.004%, n=3, FIG. 2
Method: Normal Human Epidermal Melanocytes—NHEMs-DP. Normal Human Epidermal Melanocytes darkly-pigmented (NHEM-DP; Thermo Fisher Scientific, C1025C) were grown in M254 medium (Thermo Fisher Scientific, M254500) supplemented with Human Melanocyte Growth Supplement (HMGS; Thermo Fisher Scientific, S0025) and antibiotics (Gentamycin, Thermo Fisher Scientific, 15710049). The cells were maintained in a humidified incubator at 37° C. with a 5% CO2 atmosphere.
At the end of treatment, NHEM-DP cells (n=3) were lysed using NaOH (1N; Merck, 109956) solution. From the collected extracts, the protein content was quantified by a colorimetric assay (Pierce Coomassie Protein Assay Kit, Thermo Fischer Scientific, 23200) using a spectrophotometer (GloMax Explorer GM3500, Microplate Reader) for reading of the optical density at 600 nm. The melanin content was determined after sample heating for 1 h at 80° C. for its solubilization and reading of the optical density at 490 nm. Afterwards, the amount of melanin was determined on the basis of a standard curve using synthetic melanin (Sigma Aldrich, 8631) and then normalized to the total protein content. […]
At the end of the treatments, intracellular melanin was extracted from cell cultures and analyzed as described in materials and methods in Example 1. […]

In the case of `O=c1cc(CO)occ1O` [Kojic acid], the “melanin content vs untreated control” value is reported as “significantly decreased the melanin content”.
